Values of other authors, collected in US6231888A, “Local delivery of non steroidal anti inflammatory drugs (NSAIDS) to the colon as a treatment for colonic polyps” (Perio Products Ltd., priority 1998, dated 2001).

What was measured:
colorectal cancer = conditions: chronic use
colonic biopsies = conditions: diclofenac-induced colitis
[1] = test system: HT-29 colon adenocarcinoma cells; conditions: HT-29 cells
[2] = test system: SW480 colon carcinoma cells
colonic polyps = conditions: daily dose of 300 mg, taken systemically
[3] = test system: sporadic colorectal adenomas; conditions: 300 mg or 150 mg daily for one year; polyps 4-12 mm
colorectal mucosa = conditions: FAP patients
[4] = test system: HT-29 colon adenocarcinoma cell line

In the case of Cc1cnc(NC(=O)C2=C(O)c3ccccc3S(=O)(=O)N2C)s1 [Meloxicam], the COX-2 inhibition (COX-2) is listed as “selective COX-2 inhibitor”.

For CC(=O)Oc1ccccc1C(=O)O [aspirin], the “Reduction in the incidence of colorectal cancer” value (colorectal cancer) is listed as 50-70%.

In the case of O=C(O)Cc1ccccc1Nc1c(Cl)cccc1Cl [diclofenac], the “Apoptotic bodies in colonic biopsies” value (colonic biopsies) is listed as “increased levels of apoptotic bodies”.

For CN1C(C(=O)Nc2ccccn2)=C(O)c2ccccc2S1(=O)=O [piroxicam], the COX-2 inhibition (COX-2) is listed as “strong inhibitory effect on COX-2”.

In the case of CSc1ccc(/C=C2/C(C)=C(CC(=O)O)c3cc(F)ccc32)cc1 [sulindac sulfide], the COX-2 inhibition (COX-2) is listed as “potent inhibitor of COX-2”, the “Potency in reducing proliferation and inhibiting the cell cycle vs sulindac” value [1] is listed as “six times more potent than sulindac” and the Cell cycle inhibition [2] is listed as “induced cell cycle inhibition”. For the same compound, the “Time within which plasma concentration exceeds that of sulindac” value (in vivo, po) was “four”.

In the case of CC1=C(CC(=O)O)c2cc(F)ccc2/C1=C\c1ccc([S+](C)[O-])cc1 (stereo not shown) [sulindac], the “Number and size of colonic polyps” value (colonic polyps) is listed as “significantly decreased”, the “Regression/progression of sporadic colorectal adenomas” value [3] is listed as “induced regressions and prevented the progression of sporadic colorectal adenomas” and the Colonic mucosal apoptosis (colorectal mucosa) is listed as “increased levels of colonic mucosal apoptosis”. For the same compound, the Proliferation (colorectal mucosa) was “No effects on proliferation”, the Apoptosis [4] was “induction of apoptosis” and the “Cell proliferation or differentiation” value [4] was “no evidence of cell proliferation or differentiation”. The COX-2 inhibition (COX-2) was “weak inhibitor of COX-2”, the COX-1 inhibition (COX-1) was “mainly exerts an inhibitory effect on COX-1” and the “Reduction product formed by colonic microflora” value (colonic microflora) was “exclusively to sulindac sulfide”. The “Regression of adenomatous polyps” value (sporadic colonic polyps) was “no similar regression of adenomatous polyps” and the “Time of peak plasma concentration” value (oral tablet) was “about two”.
